Structures can show the parent of a compound that is named as a salt.
How the values were obtained:
[1] = test system: peripheral blood lymphocytes; test: Blood lymphocyte depletion; format: in vivo; settings: rats, p.o.
Procedure: B. In Vivo: Blood Lymphocyte Depletion
A compound of formula I or the vehicle is administered orally by gavage to rats. Tail blood for hematological monitoring is obtained on day −1 to give the baseline individual values, and at 2, 6, 24, 48 and 72 hours after application.

[2] = molecular target: T1, human S1P receptor EDG-3 (S1P3) (Homo sapiens, UniProt Q99500); test: S1P receptor profiling, GTP[γ-35S] binding SPA, S1P3; format: biochemical; settings: for S1P3 mode of action (Agon. = agonist): GTP[γ-35S] binding SPA; for EC50: GTP[γ-35S] binding to membrane protein of transfected CHO or RH7777 cells, SPA
T1 construct: expressed in transfected cells
Procedure: (§1) Sphingosine-1-Phosphate (S1P) Receptor Profiling
(§2) Agonist activities of compounds are tested on the human SIP receptors EDG-1 (S1P1), EDG-3 (S1P3), EDG-5 (S1P2), EDG-6 (S1P4) and EDG-8 (S1P5). […] The assay technology used is SPA (scintillation proximity based assay). Briefly, DMSO dissolved compounds are serially diluted and added to SPA-bead (Amersham-Pharmacia) immobilised SIP receptor expressing membrane protein (10-20 μg/well) in the presence of 50 mM Hepes, 100 mM NaCl, 10 mM MgCl2, 10 μM GDP, 0.1% fat free BSA and 0.2 nM GTP [γ-^35S] (1200 Ci/mmol). After incubation in 96 well microtiterplates at RT for 120 min, unbound GTP [γ-^35S] is separated by a centrifugation step. Luminescence of SPA beads triggered by membrane bound GTP [γ-^35S] is quantified with a TOP count plate reader (Packard). EC50s are calculated using standard curve fitting software. In this assay, the compounds of formula I have a binding affinity to S1P1 receptor <50 nM.

[3] = molecular target: T2, human S1P receptor EDG-1 (S1P1) (Homo sapiens, UniProt P21453); test: S1P receptor profiling, GTP[γ-35S] binding SPA, S1P1; format: biochemical; settings: for S1P1 mode of action (Agon. = agonist): GTP[γ-35S] binding SPA; for EC50: GTP[γ-35S] binding to membrane protein of transfected CHO or RH7777 cells, SPA
T2 construct: expressed in transfected cells
Procedure: as §1, §2

[4] = molecular target: T3, human S1P receptor EDG-8 (S1P5) (Homo sapiens, UniProt Q9H228); test: S1P receptor profiling, GTP[γ-35S] binding SPA, S1P5; format: biochemical; settings: for S1P5 mode of action (Agon. = agonist): GTP[γ-35S] binding SPA; for EC50: GTP[γ-35S] binding to membrane protein of transfected CHO or RH7777 cells, SPA
T3 construct: expressed in transfected cells
Procedure: as §1, §2

[5] = molecular target: T4, human S1P receptor EDG-6 (S1P4) (Homo sapiens, UniProt O95977); test: S1P receptor profiling, GTP[γ-35S] binding SPA, S1P4; format: biochemical; settings: for EC50: GTP[γ-35S] binding to membrane protein of transfected CHO or RH7777 cells, SPA; for S1P4 mode of action (Agon. = agonist): GTP[γ-35S] binding SPA
T4 construct: expressed in transfected cells
T4 sequence (O95977 1-384): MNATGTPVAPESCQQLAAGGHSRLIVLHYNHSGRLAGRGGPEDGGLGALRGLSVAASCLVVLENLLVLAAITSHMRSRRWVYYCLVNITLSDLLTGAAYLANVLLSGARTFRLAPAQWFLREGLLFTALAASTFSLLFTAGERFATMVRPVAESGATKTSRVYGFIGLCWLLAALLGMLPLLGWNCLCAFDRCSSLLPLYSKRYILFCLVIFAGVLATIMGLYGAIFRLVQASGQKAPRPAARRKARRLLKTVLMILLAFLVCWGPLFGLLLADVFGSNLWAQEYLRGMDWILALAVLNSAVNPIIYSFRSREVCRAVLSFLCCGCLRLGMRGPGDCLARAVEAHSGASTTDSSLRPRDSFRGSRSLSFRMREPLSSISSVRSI
Procedure: as §1, §2

T2 sequence (P21453 whole entry): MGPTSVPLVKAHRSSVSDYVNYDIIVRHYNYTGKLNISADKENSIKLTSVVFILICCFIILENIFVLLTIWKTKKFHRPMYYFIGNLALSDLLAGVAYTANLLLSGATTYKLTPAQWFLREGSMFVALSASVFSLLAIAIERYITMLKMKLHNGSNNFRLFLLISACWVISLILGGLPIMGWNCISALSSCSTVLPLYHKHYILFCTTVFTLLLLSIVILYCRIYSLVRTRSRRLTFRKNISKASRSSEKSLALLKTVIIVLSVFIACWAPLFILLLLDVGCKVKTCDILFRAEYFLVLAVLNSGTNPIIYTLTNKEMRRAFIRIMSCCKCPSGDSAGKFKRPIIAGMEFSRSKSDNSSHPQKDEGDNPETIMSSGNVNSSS
T1 sequence (Q99500 whole entry): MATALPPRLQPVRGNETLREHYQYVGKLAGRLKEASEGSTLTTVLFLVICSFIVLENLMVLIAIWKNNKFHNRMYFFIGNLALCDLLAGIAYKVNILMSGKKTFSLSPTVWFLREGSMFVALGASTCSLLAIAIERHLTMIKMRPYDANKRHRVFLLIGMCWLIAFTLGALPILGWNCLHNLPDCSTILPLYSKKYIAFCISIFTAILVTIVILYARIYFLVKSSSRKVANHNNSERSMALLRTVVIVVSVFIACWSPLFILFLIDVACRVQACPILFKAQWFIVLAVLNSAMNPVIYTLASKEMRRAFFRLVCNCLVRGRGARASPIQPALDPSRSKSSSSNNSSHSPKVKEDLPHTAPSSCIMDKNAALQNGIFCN
T3 sequence (Q9H228 whole entry): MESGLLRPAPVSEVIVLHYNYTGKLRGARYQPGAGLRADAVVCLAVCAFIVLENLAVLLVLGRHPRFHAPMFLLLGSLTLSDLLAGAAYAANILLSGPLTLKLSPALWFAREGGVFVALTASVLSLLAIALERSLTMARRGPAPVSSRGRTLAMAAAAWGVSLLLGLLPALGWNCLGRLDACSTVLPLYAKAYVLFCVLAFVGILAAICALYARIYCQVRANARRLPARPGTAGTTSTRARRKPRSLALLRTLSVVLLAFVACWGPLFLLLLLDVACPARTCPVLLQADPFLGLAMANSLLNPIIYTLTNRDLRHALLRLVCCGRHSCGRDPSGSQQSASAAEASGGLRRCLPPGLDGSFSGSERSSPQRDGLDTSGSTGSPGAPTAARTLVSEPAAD

Structure (SMILES) | S1P3 mode of action (Agon. = agonist) [2] | EC50 [2] [nM] | S1P1 mode of action (Agon. = agonist) [3] | EC50 [3] [nM] | S1P5 mode of action (Agon. = agonist) [4] | EC50 [4] [nM] | EC50 [5] [nM] | S1P4 mode of action (Agon. = agonist) [5] | dose giving depletion of peripheral blood lymphocytes by more than 50% ([1]; after 6 h) [mg/kg] | dose giving depletion of peripheral blood lymphocytes by more than 50% ([1]; after 24 h) [mg/kg] | dose giving depletion of peripheral blood lymphocytes by more than 50% ([1]; after 48 h) [mg/kg]
C[C@](N)(CO)CCc1ccc(OCCOc2ccc(Cl)cc2)cc1 [Example 1, (R)-2-Amino-4-{4-[2-(4-chloro-phenoxy)-ethoxy]-phenyl}-2-methyl-butan-1-ol Hydrochloride] | – | – | – | – | – | – | – | – | 0.03 | 0.02 | –
C[C@@](N)(CCc1ccc(OCCOc2ccc(Cl)cc2)cc1)COP(=O)(O)O [Example 36, (R)-Mono-(2-amino-4-{4-[2-(4-chloro-phenoxy)-ethoxy]-phenyl}-2-methyl-butyl) phosphate] | Agon. | 15 | Agon. | 0.6 | Agon. | 14 | > 1000 | – | – | – | –
C[C@@](N)(CCc1ccc(OCCOc2ccccc2)cc1)COP(=O)(O)O [Example 38] | – | > 1000 | Agon. | 8.6 | Agon. | 11.7 | 28 | Agon. | – | – | –
COc1ccc(Br)cc1OCCCOc1ccc(CC[C@@](C)(N)CO)cc1 [Example 53, (R)-2-Amino-4-{4-[3-(5-bromo-2-methoxy-phenoxy)-propoxy]-phenyl}-2-methyl-butan-1-ol Hydrochloride] | – | – | – | – | – | – | – | – | 0.1 | – | 0.5

Further lines, with some results ahead:

S1P3 mode of action (Agon. = agonist) [2] | EC50 [2] [nM] | S1P1 mode of action (Agon. = agonist) [3] | EC50 [3] [nM] | S1P5 mode of action (Agon. = agonist) [4] | EC50 [4] [nM] | EC50 [5] [nM] | S1P4 mode of action (Agon. = agonist) [5] | Structure (SMILES) | dose giving depletion of peripheral blood lymphocytes by more than 50% ([1]; after 6 h) [mg/kg] | dose giving depletion of peripheral blood lymphocytes by more than 50% ([1]; after 24 h) [mg/kg] | dose giving depletion of peripheral blood lymphocytes by more than 50% ([1]; after 48 h) [mg/kg]
– | > 1000 | Agon. | 5.5 | Agon. | 6.3 | 8.2 | Agon. | C[C@@](N)(CCc1ccc(OCCOc2cccc(F)c2F)cc1)COP(=O)(O)O [Example 42] | – | – | –
Agon. | 340 | Agon. | 8 | Agon. | 0.5 | 43 | Agon. | COc1cc(CC[C@@](C)(N)COP(=O)(O)O)ccc1OCCOc1ccccc1 [Example 43] | – | – | –
Agon. | > 10000 | Agon. | 8.5 | Agon | 16.5 | 1.6 | Agon. | COc1ccc(Br)cc1OCCCOc1ccc(CCC(N)(CO)COP(=O)(O)O)cc1 (centres unmarked) [Example 56] | – | – | –
